Measurements reported in patent US11384063B2, “Modulators of estrogen receptor proteolysis and associated methods of use” (Arvinas Operations, Inc., priority 2017, dated 2022).

Columns and labels:
ERα [1] = target: T1, ERα (Homo sapiens, UniProt P03372); experiment: ERE luciferase reporter gene assay in T47D-KBluc cells (target engagement); assay type: cell-based; parameters: T47D human breast cancer cells stably transfected with estrogen responsive element/promoter/luciferase reporter gene; host or cells: T47D-KBluc cells; details: 10% FBS, 24 hours, Table 2 VHL centric PROTACs, read-out: IC50
T1 sequence (P03372 1-595): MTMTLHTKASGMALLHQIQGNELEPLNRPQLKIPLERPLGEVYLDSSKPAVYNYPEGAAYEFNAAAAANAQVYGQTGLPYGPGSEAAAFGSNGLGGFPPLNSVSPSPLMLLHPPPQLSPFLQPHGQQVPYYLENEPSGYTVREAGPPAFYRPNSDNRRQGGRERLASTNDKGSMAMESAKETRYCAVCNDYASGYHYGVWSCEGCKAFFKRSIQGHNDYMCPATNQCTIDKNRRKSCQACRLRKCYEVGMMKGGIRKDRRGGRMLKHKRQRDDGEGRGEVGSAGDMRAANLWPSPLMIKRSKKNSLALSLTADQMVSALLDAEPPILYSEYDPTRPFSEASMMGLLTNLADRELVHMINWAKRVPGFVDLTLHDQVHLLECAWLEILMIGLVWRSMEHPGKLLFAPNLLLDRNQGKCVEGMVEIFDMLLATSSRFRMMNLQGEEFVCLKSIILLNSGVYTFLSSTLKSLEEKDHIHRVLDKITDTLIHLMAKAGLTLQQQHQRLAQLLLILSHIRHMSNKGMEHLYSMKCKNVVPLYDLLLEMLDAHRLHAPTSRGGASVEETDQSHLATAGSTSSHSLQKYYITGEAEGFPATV
Summary of the method: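 PROTACs were tested at 12 concentrations from 300 nM down to 2 pM in 3-fold steps for 24 h on T47D-KBluc cells with a stable ERE-driven luciferase. Medium was RPMI with 10% FBS, measured at 10 pM estrogen. IC50 came from luminescence after lysis, in duplicate.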

ERα [2] = target: T1, ERα; experiment: Estrogen receptor-alpha (ERα) degradation assay in MCF-7 cells using western blot; assay type: cell-based; parameters: assessed for their activity in degrading ERα in MCF-7 cells via western blot; endogenous in cells; host or cells: MCF7 cells; details: ER-alpha degradation, MCF7 cells, 3 days of incubation
Method: Compounds prepared in this application were also analyzed for the degradation of ERα in MCF7 and T47D cells.
Estrogen Receptor-Alpha (ERα) Degradation Assay in MCF-7 Cells Using Western Blot Method for Table 4.
The exemplary novel ERα degraders were assessed for their activity in degrading ERα in MCF-7 cells via western blot. The assay was carried out in the presence of 10% fetal bovine serum (FBS) or high percentage of human or mouse serum.
MCF7 cells were grown in DMEM/F12 with 10% fetal bovine serum and seeded at 24,000 cells per well in 100 μl into 96-well clear tissue culture plates. The following day, the cells were treated with PROTACs in a […] concentration curve with 100 nM being the top concentration and serial dilutions to make the other concentrations (30 nM, 10 nM, 3 nM, 1 nM, and 0.3 nM). At all concentrations, 0.01% DMSO is the final concentration in the well. The following day, the plates are aspirated, washed with 50 μl of cold PBS. The cells are lysed with 50 μl/well 4° C. Cell Lysis Buffer (Catalog #9803; Cell Signaling Technology, Danvers, Mass.) (20 mM Tris-HCL (pH 7.5), 150 mM NaCl, 1 mM […], 1 mM EGTA, 1% Triton, 2.5 mM sodium pyrophosphate, 1 mM B-glycerophosphate, 1 mM sodium vanadate, 1 ug/ml leupeptin). Lysates were clarified at 16,000×g for 10 minutes, and 2 μg of protein was subjected to SDS-PAGE analysis and followed by immunoblotting according to standard protocols. The antibodies used were ERα (Cell Signaling Technologies Catalog #8644), and Tubulin (Sigma Catalog #T9026; St. Louis, Mo.). Detection reagents were Clarity Western ECL substrate (Bio-Rad Catalog #170-5060; Hercules, Calif.).
Alternatively, MCF7 cells were grown in DMEM/F12 with 10% fetal bovine serum and seeded at 24,000 cells per well in 500 μl in 24-well clear tissue culture plates. The following day, the cells were treated with PROTACs in a 5-point concentration curve (100 nM, 33 nM, 11 nM, 3.7 nM, and 1.2 nM) in the presence of 0.01% DMSO. After 72 hours, the wells are aspirated and washed with 500 μl of PBS. The cells are lysed with 100 μl/well 4° C. Cell Lysis Buffer (Catalog #9803; Cell Signaling Technology, Danvers, M A) (20 mM Tris-HCL (pH 7.5), 150 mM NaCl, 1 mM Na2EDTA, 1 mM EGTA, 1% Triton, 2.5 mM sodium pyrophosphate, 1 mM B-glycerophosphate, 1 mM sodium vanadate, 1 ug/ml leupeptin). Lysates were clarified at 16,000×g for 10 minutes, and 2 μg of protein was subjected to SDS-PAGE analysis and followed by immunoblotting according to standard protocols. The antibodies used were ER(X (Cell Signaling Technologies Catalog #8644), and Tubulin (Sigma Catalog #T9026; St. Louis, Mo.). Detection reagents were Clarity Western ECL substrate (Bio-Rad Catalog #170-5060; Hercules, Calif.).

## Cc1ncsc1-c1ccc(CNC(=O)[C@@H]2C[C@@H](O)CN2C(=O)[C@@H](NC(=O)COCCCCOc2ccc(-c3ccc(Oc4c(-c5ccc(F)cc5)sc5cc(O)ccc45)cc3)nc2)C(C)(C)C)cc1 [Compound 133, (2S,4R)-1-[(2S)-2-[2-(4-[[6-(4-[[2-(4-fluorophenyl)-6-hydroxy-1-benzothiophen-3-yl]oxy]phenyl)pyridin-3-yl]oxy]butoxy)acetamido]-3,3-dimethylbutanoyl]-4-hydroxy-N-[[4-(4-methyl-1,3-thiazol-5-yl)phenyl]methyl]pyrrolidine-2-carboxamide]
ERα [1]
  IC50: 3.7 nM
ERα [2]
  DC50: 1 to 10 nM
  Dmax: > 75%

## Cc1ncsc1-c1ccc(CNC(=O)[C@@H]2C[C@@H](O)CN2C(=O)[C@@H](NC(=O)COCCOC2CN(CCOc3ccc(Oc4c(-c5ccc(F)cc5)sc5cc(O)ccc45)cc3)C2)C(C)(C)C)cc1 [Compound 117, (2S,4R)-1-((S)-2-(2-(2-(1-(2-(4-(2-(4-fluorophenyl)-6-hydroxybenzo[b]thiophen-3-yloxy)phenoxy)ethyl)azetidin-3-yloxy)ethoxy)acetamido)-3,3-dimethylbutanoyl)-4-hydroxy-N-(4-(4-methylthiazol-5-yl)benzyl)pyrrolidine-2-carboxamide]
ERα [1]
  IC50: 3.3 nM
ERα [2]
  DC50: 1 to 10 nM
  Dmax: 50 to 75%

## Cc1ncoc1-c1ccc([C@H](C)NC(=O)[C@@H]2C[C@@H](O)CN2C(=O)[C@@H](NC(=O)COCCOCCOCCOc2ccc(Oc3c(-c4ccccc4)sc4cc(O)ccc34)cc2)C(C)(C)C)cc1 [Compound 138, (2S,4R)-1-((S)-2-tert-butyl-14-(4-(6-hydroxy-2-phenylbenzo[b]thiophen-3-yloxy)phenoxy)-4-oxo-6,9,12-trioxa-3-azatetradecane)-4-hydroxy-N-((S)-1-(4-(4-methyloxazol-5-yl)phenyl)ethyl)pyrrolidine-2-carboxamide]
ERα [1]
  IC50: 0.1 nM
ERα [2]
  DC50: < 1 nM
  Dmax: > 75%

## Cc1ncsc1-c1ccc(CNC(=O)[C@@H]2C[C@@H](O)CN2C(=O)[C@@H](NC(=O)CCc2cccc(-c3ccn(CCOc4ccc(Oc5c(-c6ccc(F)cc6)sc6cc(O)ccc56)cc4)n3)c2)C(C)(C)C)cc1 [Compound 130, (2S,4R)-1-[(2S)-2-[3-(3-[1-[2-(4-[[2-(4-fluorophenyl)-6-hydroxy-1-benzothiophen-3-yl]oxy]phenoxy)ethyl]-1H-pyrazol-3-yl]phenyl)propanamido]-3,3-dimethylbutanoyl]-4-hydroxy-N-[[4-(4-methyl-1,3-thiazol-5-yl)phenyl]methyl]pyrrolidine-2-carboxamide]
ERα [1]
  IC50: 3.5 nM
ERα [2]
  DC50: 1 to 10 nM
  Dmax: > 75%

## Cc1ncsc1-c1ccc(CNC(=O)[C@@H]2C[C@@H](O)CN2C(=O)[C@@H](NC(=O)CN2CCC(N3CC(OCCOc4ccc(Oc5c(-c6ccc(Br)cc6)sc6cc(O)ccc56)cc4)C3)CC2)C(C)(C)C)cc1 [Compound 160, (2S,4R)-1-[(2S)-2-[2-(4-[3-[2-(4-[[2-(4-bromophenyl)-6-hydroxy-1-benzothiophen-3-yl]oxy]phenoxy)ethoxy]azetidin-1-yl]piperidin-1-yl)acetamido]-3,3-dimethylbutanoyl]-4-hydroxy-N-[[4-(4-methyl-1,3-thiazol-5-yl)phenyl]methyl]pyrrolidine-2-carboxamide]
ERα [1]
  IC50: 6.3 nM
ERα [2]
  DC50: 1 to 10 nM
  Dmax: > 75%

## Cc1ncsc1-c1ccc([C@H](C)NC(=O)[C@@H]2C[C@@H](O)CN2C(=O)[C@@H](NC(=O)Cc2ccc(-c3ccn(CCOc4ccc(Oc5c(-c6ccc(F)cc6)sc6cc(O)ccc56)cc4)n3)cc2)C(C)(C)C)cc1 [Compound 141, (2S,4R)-1-[(2S)-2-[2-(4-[1-[2-(4-[[2-(4-fluorophenyl)-6-hydroxy-1-benzothiophen-3-yl]oxy]phenoxy)ethyl]-1H-pyrazol-3-yl]phenyl)acetamido]-3,3-dimethylbutanoyl]-4-hydroxy-N-[(1S)-1-[4-(4-methyl-1,3-thiazol-5-yl)phenyl]ethyl]pyrrolidine-2-carboxamide]
ERα [1]
  IC50: 1.5 nM
ERα [2]
  DC50: 1 to 10 nM
  Dmax: > 75%
